Experiment [1] relates to ICAM-1 expression in A549 cells. The experiment in a line: ICAM assay (IL-1 induced ICAM-1/CD54 expression in A549 cells). The experiment is classed as cell-based, human. The source says:
The expression of intercellular adhesion molecule (ICAM)-1 in endothelial cells is pivotal in supporting lymphocyte migration across the vascular endothelium. TNF/IL-1 induces the NF-kB pathway in which NF-kB acts as a transcription factor and activation of NF-kB induces ICAM expression. IkB inhibits NF-KB by binding to it and retaining NF-kB in the cytoplasm. Upon cytokine stimulation, several signaling molecule including TRAF6, IKKs, and TAK1 are activated which lead to the phosphorylation of IkB. Phosphorylated IkB is then ubiquitinated by the SCF complex and degraded by proteasome, thereby releasing NF-kB to translocate into the nucleus. In the nucleus, NF-kB binds to DNA and activates transcription of various genes that are involved in inflammation, cell survival, and apoptosis. The ICAM assay is a primary assay for HTS as well as a cell based assay for TRAF6 inhibitors.
The following materials are used 96-well plates; F12K complete medium that includes 10% FBS and 1% P/S (penicillin/streptomycin); 1×PBS; 5 ug/ml IL-1, Human CD54 (CALTAG Laboratory, Cat#MHCD5400-4); anti-mouse-IgG (Jackson Lab, Cat#115-035 146); and A549 cells.
Procedure. 10,000 A549 cells/well were seeded in 100 μl F12K complete medium in a 96-well white plate. The seeded plate was incubate at 37° C. incubator in 5% CO2 overnight. After the overnight incubation, 4 μl of diluted test compound was added and incubated for 1 hour at 37° C. After the 1 hour incubation, 4 μl of 25 ng/ml IL-1 was added to each well and the cells were stimulated at 37° C. for 4 hours.
After stimulation, the cells were stained with CD54 (1:1000 diluted with medium) and anti-mouse IgG (1:1100 diluted with medium) for 1 hour. Subsequently, the medium was removed and each well was washed with 200 μl of PBS three times. Detection of activity was performed by addition of 100 μl/well of lumino substrate.

The next experiment has as its target T1, TRAF6/Uev1A/Ubc13 (Homo sapiens, UniProt Q9Y4K3).
T1 sequence (Q9Y4K3 1-522): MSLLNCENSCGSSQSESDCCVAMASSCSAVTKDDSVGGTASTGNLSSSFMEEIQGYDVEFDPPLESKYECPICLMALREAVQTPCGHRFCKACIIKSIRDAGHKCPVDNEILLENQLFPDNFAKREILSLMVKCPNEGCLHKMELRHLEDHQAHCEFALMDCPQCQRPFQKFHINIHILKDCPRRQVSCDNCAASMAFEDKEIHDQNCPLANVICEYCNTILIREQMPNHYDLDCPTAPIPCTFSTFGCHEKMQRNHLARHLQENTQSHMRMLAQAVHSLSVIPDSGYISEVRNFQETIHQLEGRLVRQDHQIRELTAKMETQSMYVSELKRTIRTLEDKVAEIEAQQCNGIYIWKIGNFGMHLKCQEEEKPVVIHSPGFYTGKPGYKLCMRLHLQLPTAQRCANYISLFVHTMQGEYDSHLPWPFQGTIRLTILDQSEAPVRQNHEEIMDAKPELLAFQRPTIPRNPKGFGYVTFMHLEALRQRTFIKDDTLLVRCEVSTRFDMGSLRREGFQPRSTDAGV
The experiment in a line: TRAF6/Uev1A/Ubc13 plate-based ubiquitin ligase assay. It counts as biochemical. Summed up:
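Ligase activity was read as luminescence from anti-Flag/HRP detection of Flag-ubiquitin bound to casein-blocked Ni-plates alongside His-ubiquitin after a 1 h room-temperature reaction. Buffer: 62.5 mM Tris pH 7.5, 6.25 mM MgCl2, 1.0 mM DTT, 2 μM ATP; E1, Uev1a/Ubc13 and TRAF6 added last to start. IC50s derived across compound concentrations.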

A further experiment concerns A549 cells. The experiment in a line: Cell proliferation PAD assay, A549. The following applies: 48 hours. The experiment is classed as cell-based. Summed up:
(§1)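 Proliferation was scored by DAPI imaging of fixed cells, counting live, apoptotic and dead cells, after 48 h compound exposure at 37 °C, 5% CO2. Compound, dosed in duplicate 24 h post-plating (2,000 cells/well), came from 6.3-fold dilutions of a 10 mM stock diluted 500-fold.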

A further experiment relates to H1299 cells. The experiment in a line: Cell proliferation PAD assay, H1299. The experiment is classed as cell-based. To be noted: 48 hours. The method, boiled down: as §1
Where [2] appears, read: Homo sapiens, 6pt, read-out: A549 6pt.
Setting [3] is: Homo sapiens, NCI-H1299, 6pt, read-out: H1299 6pt.
The mark [4] stands for this setting: Homo sapiens, 3pt, read-out: A549 3pt.
Setting [5] is: Homo sapiens, NCI-H1299, 3pt, read-out: H1299 3pt.

Data on 20 compounds can be found in patent US20050282818A1, “Ubiquitin ligase inhibitors” (Rigel Pharmaceuticals, Inc., priority 2004, published 2005).

pIC50: −log10 of the molar value. Read-outs that look alike come from different tables or passages of the source. Some results are limits rather than exact numbers.

For the compound `O=S(=O)(c1c(Cl)ccc2nonc12)N1CCN(c2ccc(Cl)c(C(F)(F)F)c2)CC1` [compound 182, 5-chloro-4-({4-[4-chloro-3-(trifluoromethyl)phenyl]piperazin-1-yl}sulfonyl)-2,1,3-benzoxadiazole], the pIC50 in experiment [1] (Homo sapiens, A549, ICAM assay) was ≤ 4.70; at TRAF6/Uev1A/Ubc13 it was ≤ 4.70; in the experiment on A549 cells (setting [2]), 4.70 to 6.00; in the experiment on H1299 cells (setting [3]), 4.70 to 6.00.
Take `O=S(=O)(c1ccc(Cl)c2nonc12)N1CCN(CCOCCO)CC1` [compound 185, 2-(2-{4-[(7-chloro-2,1,3-benzoxadiazol-4-yl)sulfonyl]piperazin-1-yl}ethoxy)ethanol]: the pIC50 is ≤ 4.70 in experiment [1] (Homo sapiens, A549, ICAM assay); ≤ 4.70 against TRAF6/Uev1A/Ubc13; 4.70 to 6.00 with A549 cells (setting [2]); 4.70 to 6.00 in the experiment on H1299 cells (setting [3]).
As for `CN1CCN(S(=O)(=O)c2ccc(Cl)c3nonc23)CC1` [compound 189, 4-chloro-7-[(4-methylpiperazin-1-yl)sulfonyl]-2,1,3-benzoxadiazole], the pIC50 in experiment [1] (Homo sapiens, A549, ICAM assay) was ≤ 4.70; at TRAF6/Uev1A/Ubc13, ≤ 4.70; with A549 cells (setting [4]), 4.70 to 6.00; in the experiment on H1299 cells (setting [5]), 4.70 to 6.00.
As to `O=S(=O)(c1ccc(Sc2cccc3cccnc23)c2nonc12)N1CCN(c2ccccc2)CC1` [compound 217, 8-({7-[(4-phenylpiperazin-1-yl)sulfonyl]-2,1,3-benzoxadiazol-4-yl}thio)quinoline], the pIC50 in experiment [1] (Homo sapiens, A549, ICAM assay) was ≤ 4.70; at TRAF6/Uev1A/Ubc13 it was 4.70 to 6.00; with A549 cells (setting [2]), 4.70 to 6.00; in the experiment on H1299 cells (setting [3]), 4.70 to 6.00.
In the case of `O=S(=O)(c1ccc(Cl)c2nonc12)N1CCC(Oc2ncccn2)CC1` [compound 225, 4-chloro-7-{[4-(pyrimidin-2-yloxy)pipendin-1-yl]sulfonyl}-2,1,3-benzoxadiazole], the pIC50 in experiment [1] (ICAM assay) is ≤ 4.70; against TRAF6/Uev1A/Ubc13, ≤ 4.70; with A549 cells (3pt, read-out: A549 3pt), 4.70 to 6.00; in the experiment with H1299 cells (3pt, read-out: H1299 3pt), 4.70 to 6.00.
For `O=S(=O)(c1c(Cl)ccc2nonc12)N1CCC(Oc2ccccc2C(F)(F)F)CC1` [compound 229, 5-chloro-4-({4-[2-(trifluoromethyl)phenoxy]piperidin-1-yl}sulfonyl)-2,1,3-benzoxadiazole], the pIC50 was ≤ 4.70 in experiment [1] (Homo sapiens, A549, ICAM assay); 4.70 to 6.00 on TRAF6/Uev1A/Ubc13; 4.70 to 6.00 in the experiment on A549 cells (setting [2]); > 6.00 with H1299 cells (setting [3]).
With `O=S(=O)(c1c(Cl)ccc2nonc12)N1CCC(Oc2ncccn2)CC1` [compound 234], the pIC50 in experiment [1] (Homo sapiens, A549, ICAM assay) is ≤ 4.70; against TRAF6/Uev1A/Ubc13, ≤ 4.70; in the experiment on A549 cells (setting [4]) it was 4.70 to 6.00; in the experiment with H1299 cells (setting [5]), 4.70 to 6.00.
As for `O=S(=O)(c1cccc2nonc12)N1CCC(Oc2ncccn2)CC1` [compound 235], the pIC50 at TRAF6/Uev1A/Ubc13, with A549 cells (setting [4]) and with H1299 cells (setting [5]) was ≤ 4.70 in each case.
As for `O=S(=O)(c1c(N2CCC(Oc3ncccn3)CC2)ccc2nonc12)N1CCC(Oc2ncccn2)CC1` [compound 236, 5-[4-(1,3-pyrimidin-2-yloxy)piperidin-1-yl]-4-{[4-(1,3-pyrimidin-2-yloxy)piperidin-1-yl]sulfonyl}-2,1,3-benzoxadiazole], the pIC50 was ≤ 4.70 in experiment [1] (Homo sapiens, A549, ICAM assay); ≤ 4.70 on TRAF6/Uev1A/Ubc13; 4.70 to 6.00 in the experiment with A549 cells (setting [4]); 4.70 to 6.00 in the experiment on H1299 cells (setting [5]).
Turning to `CC1(C)CCN(c2ccc([N+](=O)[O-])c3nonc23)CC1` [compound 242, 4-(4,4-dimethylpipendin-1-yl)-7-nitro-2,1,3-benzoxadiazole], the pIC50 against TRAF6/Uev1A/Ubc13, in the experiment on A549 cells (setting [2]) and with H1299 cells (setting [3]) was ≤ 4.70 in each case.
As to `CC1(C)CCN(S(=O)(=O)c2ccc(F)c3nonc23)CC1` [compound 243, 4-[(4,4-dimethylpiperidin-1-yl)sulfonyl]-7-fluoro-2,1,3-benzoxadiazole], the figures for the pIC50 against TRAF6/Uev1A/Ubc13, in the experiment on A549 cells (setting [2]) and in the experiment with H1299 cells (setting [3]) were ≤ 4.70, > 6.00 and ≤ 4.70, respectively.
For the compound `O=S(=O)(c1ccc(Sc2ccncc2)c2nonc12)N1CCC(O)(c2ccc(Cl)cc2)CC1` [compound 246, 4-(4-chlorophenyl)-1-{[7-(pyridin-4-ylthio)-2,1,3-benzoxadiazol-4-yl]sulfonyl}piperidin-4-ol], the pIC50 was 4.70 to 6.00 at TRAF6/Uev1A/Ubc13, ≤ 4.70 in the experiment with A549 cells (setting [2]) and 4.70 to 6.00 in the experiment with H1299 cells (setting [3]).
Take `O=S(=O)(Nc1cccc(F)c1F)c1ccc(Cl)c2nonc12` [compound 271, 7-chloro-N-(2,3-difluorophenyl)-2,1,3-benzoxadiazole-4-sulfonamide]: the pIC50 in experiment [1] (Homo sapiens, A549, ICAM assay) was ≤ 4.70; at TRAF6/Uev1A/Ubc13, 4.70 to 6.00.
Turning to `O=S(=O)(Nc1cccc(F)c1F)c1ccc(F)c2nonc12` [compound 274, N-(2,3-difluorophenyl)-7-fluoro-2,1,3-benzoxadiazole-4-sulfonamide], the pIC50 in experiment [1] (Homo sapiens, A549, ICAM assay) is ≤ 4.70; on TRAF6/Uev1A/Ubc13 it was 4.70 to 6.00.
For the compound `O=C(OCc1ccccc1)N1CCN(c2ccc([N+](=O)[O-])c3nonc23)CC1` [compound 278, benzyl 4-(7-nitro-2,1,3-benzoxadiazol-4-yl)piperazine-1-carboxylate], the pIC50 is ≤ 4.70 at TRAF6/Uev1A/Ubc13, 4.70 to 6.00 with A549 cells (setting [4]) and 4.70 to 6.00 in the experiment on H1299 cells (setting [5]).
Turning to `Nc1ccc(N2CCN(c3ncc(C(F)(F)F)cc3Cl)CC2)c2nonc12` [compound 279, 7-{4-[3-chloro-5-(trifluoromethyl)pyridin-2-yl]piperazin-1-yl}-2,1,3-benzoxadiazol-4-amine], the pIC50 at TRAF6/Uev1A/Ubc13 was ≤ 4.70; with A549 cells (setting [4]), 4.70 to 6.00; in the experiment on H1299 cells (setting [5]) it was 4.70 to 6.00.
In the case of `O=[N+]([O-])c1ccc(N2CCC(Oc3ncccn3)CC2)c2nonc12` [compound 280, 4-nitro-7-[4-(pyrimidin-2-yloxy)piperidin-1-yl]-2,1,3-benzoxadiazole], the pIC50 against TRAF6/Uev1A/Ubc13, with A549 cells (setting [4]) and in the experiment with H1299 cells (setting [5]) was ≤ 4.70 in each case.
Turning to `O=[N+]([O-])c1ccc(N2CCC(c3ccncc3)CC2)c2nonc12` [compound 283, 4-nitro-7-(4-pyridin-4-ylpiperidin-1-yl)-2,1,3-benzoxadiazole], the pIC50 against TRAF6/Uev1A/Ubc13, with A549 cells (setting [4]) and in the experiment with H1299 cells (setting [5]) was ≤ 4.70 in each case.
Regarding `O=[N+]([O-])c1ccc([S+]([O-])c2cccc3cccnc23)c2nonc12` (stereo not shown) [compound 291, 8-[(7-nitro-2,1,3-benzoxadiazol-4-yl)sulfinyl]quinoline], the pIC50 in experiment [1] (Homo sapiens, A549, ICAM assay) was ≤ 4.70; on TRAF6/Uev1A/Ubc13, 4.70 to 6.00; in the experiment on A549 cells (setting [2]), > 6.00; in the experiment on H1299 cells (setting [3]) it was > 6.00.
For `CC(C)(C)c1ccc(-c2cccc3nonc23)cc1` [compound 307, 4-(4-Tert-butylphenyl)-2,1,3-benzoxadiazole], the pIC50 at TRAF6/Uev1A/Ubc13, with A549 cells (setting [2]) and in the experiment with H1299 cells (setting [3]) was ≤ 4.70 each time.
